{
  "source": "paper PMC9367001",
  "about": "(Journal of Chemical Theory and Computation, 2022)",
  "biological_target": "IN05 HA trimer",
  "type": "binding, influenza A/Indonesia/5/2005 (H5 subtype)",
  "data": [
    {"substance": "α2,6-linked sialyl lactosamine [6-SLN]", "values": [
      {"measurement": "KD,MST", "value": "no detectable binding"}
    ]}
  ]
}
